What all share (type): biochemical
One series concerns cDNA (human). As to the kind of experiment: PCR Residual Activity Assay with three primer sets, agarose gel. The settings on record: preincubation 25° C. for 60 min, 40 cycles. The method, then: Under these conditions, if hot-start techniques were not employed, primer dimers tend to form in the PCR reaction mix.
This example includes reactions which is referred to as PCR Residual Activity Assay that involved three set of primers respectively. The primer sets are commercially available from Applied Biosystems, Foster City, Calif. Specifically, Set 1 is Hs00378363_g1; Set 2, Hs00399572_m1 and Set 3, Hs00372859_m1.
The components are listed below:
50 Unit/ml DNA polymerase
and 0.8 ng/μl cDNA (human)
Due to the needs of the individual polymerases, 1× buffer and 1×MgCl2 are different as stated below:
The cycling conditions for ECA001 are listed below:
The cycling conditions for ECA001-Gold:
The cycling conditions for AmpliTaq:
The cycling conditions for AmpliTaq Gold:
Each reaction was run in duplication.

The nature of series [1]: exonuclease to polymerase activity ratio after modification and re-activation. The settings on record: 5′-3′ exonuclease activity. An excerpt: (See details in Example 5)
It is true that lysine is a common amino acid that can be found in many enzymes.

Series [2] can be described thus: polymerase activity at room temperature relative to peak activity. An excerpt: Pol B DNA polymerases enzymes have relative low polymerase activity at room temperature, while Taq DNA polymerase still retains >5% of its peak activity (FIG. 4).

In the case of “AmpliTaq Gold: commercial hot-start modified Taq polymerase used as comparator”, the “non-specific/primer-dimer products versus specific products” value with cDNA (human) was “mostly the specific products”.
In the case of AmpliTaq: AmpliTaq DNA polymerase, the “exonuclease to polymerase activity ratio” value in series [1] was “has been changed”. Also, in the series on cDNA (human), the “non-specific/primer-dimer products versus specific products” value was “mostly non-specific/primer-dimer products”.
As to “Taq DNA polymerase: Thermus aquaticus Pol I (Taq DNA polymerase)”, in series [2], the “polymerase activity retained, of its peak activity” value is more than 5%.

Values taken from US20180094250A1, “Methods And Compositions For PCR” (Life Technologies Coroporation, priority 2007, published 2018).
